# Laboratory results: ChEMBL document CHEMBL5226297, “Small-Molecule Drug Discovery in Triple Negative Breast Cancer: Current Situation and Future Directions” (J Med Chem, 2021)
# pEC50, pIC50: −log10 of the molar value.
# Legend:
# [1] = system: HCC1806; assay: Anticancer activity against human HCC1806 cells assessed as cell growth inhibition incubated for 72 hrs by CellTiter-Blue assay; format: functional, cell-based; conditions: HCC1806, 72 h
# [2] = system: MDA-MB-231; assay: Anticancer activity against human MDA-MB-231 cells assessed as cell growth inhibition incubated for 72 hrs by CellTiter-Blue assay; format: functional, cell-based; conditions: MDA-MB-231, 72 h
# [3] = system: BT-549; assay: Anticancer activity against human BT-549 cells assessed as cell growth inhibition incubated for 24 hrs by CCK8 assay; format: functional, cell-based; conditions: BT-549, 24 h
# [4] = system: MDA-MB-231; assay: Anticancer activity against human MDA-MB-231 cells assessed as cell growth inhibition incubated for 24 hrs by CCK8 assay; format: functional, cell-based; conditions: MDA-MB-231, 24 h
# [5] = system: MDA-MB-436; assay: Anticancer activity against human MDA-MB-436 cells assessed as cell growth inhibition incubated for 24 hrs by CCK8 assay; format: functional, cell-based; conditions: MDA-MB-436, 24 h
# [6] = system: MDA-MB-231; assay: Anticancer activity against human MDA-MB-231 cells assessed as cell growth inhibition incubated for 3 to 5 days by MTT assay; format: functional, cell-based
# [7] = system: HCC1937; assay: Anticancer activity against human HCC1937 cells assessed as cell growth inhibition; format: functional, cell-based
# [8] = system: MDA-MB-231; assay: Anticancer activity against human MDA-MB-231 cells assessed as cell growth inhibition; format: functional, cell-based
# [9] = system: SUM149PT; assay: Anticancer activity against human SUM149 cells assessed as cell growth inhibition; format: functional, cell-based
# [10] = system: Hs-578T; assay: Anticancer activity against human Hs-578T cells assessed as cell growth inhibition; format: functional, cell-based
# [11] = system: HCC70; assay: Anticancer activity against human HCC70 cells assessed as cell growth inhibition; format: functional, cell-based
# [12] = system: HCC1806; assay: Anticancer activity against human HCC1806 cells assessed as cell growth inhibition; format: functional
# [13] = target: Thioredoxin (Homo sapiens, UniProt P10599); assay: Inhibition of human TXN incubated for 30 mins by fluorescence based plate reader analysis
# [14] = system: BT-20; assay: Anticancer activity against human BT-20 cells assessed as cell growth inhibition by MTT assay; format: functional, cell-based
# [15] = system: Hs-578T; assay: Anticancer activity against human Hs-578T cells assessed as cell growth inhibition incubated for 24 hrs by ALDEFLUOR assay; format: functional, cell-based
# [16] = system: MDA-MB-231; assay: cells; conditions: Homo sapiens, MDA-MB-231, 24 h
# [17] = target: T1, Aurora kinase B (Homo sapiens, UniProt Q96GD4); assay: Inhibition of human Aurora B kinase expressed in MDA-MB-231 cells; format: cell-based
# [18] = target: T1, Aurora kinase B; assay: Inhibition of human Aurora B kinase expressed in SUM149 cells; format: cell-based, SUM149PT
# [19] = target: T2, Insulin-like growth factor 1 receptor (Homo sapiens, UniProt P08069); assay: Inhibition of human IGF1R expressed in SUM149 cells; format: cell-based, SUM149PT
# [20] = target: Aurora kinase A (Homo sapiens, UniProt O14965); assay: Inhibition of human Aurora A kinase expressed in MDA-MB-468 cells; format: cell-based
# [21] = target: T1, Aurora kinase B; assay: Inhibition of human Aurora B kinase expressed in MDA-MB-468 cells; format: cell-based
# [22] = target: T2, Insulin-like growth factor 1 receptor; assay: Inhibition of human IGF1R expressed in MDA-MB-468 cells; format: cell-based
# [23] = system: MDA-MB-231; assay: Anticancer activity against human MDA-MB-231 cells assessed as cell growth inhibition incubated for 4 to 10 days by MTT assay; format: functional, cell-based
# [24] = system: Hs-578T; assay: Anticancer activity against human Hs-578T cells assessed as cell growth inhibition incubated for 4 to 10 days by MTT assay; format: functional, cell-based
# [25] = system: HCC1806; assay: Anticancer activity against human HCC1806 cells assessed as cell growth inhibition incubated for 4 to 10 days by MTT assay; format: functional, cell-based
# [26] = system: HCC38; assay: Anticancer activity against human HCC38 cells assessed as cell growth inhibition incubated for 4 to 10 days by MTT assay; format: functional, cell-based
# [27] = system: BT-549; assay: Anticancer activity against human BT-549 cells assessed as cell growth inhibition incubated for 4 to 10 days by MTT assay; format: functional, cell-based
# [28] = system: HCC1187; assay: Anticancer activity against human HCC1187 cells assessed as cell growth inhibition; format: functional, cell-based
# [29] = system: MDA-MB-468; assay: Anticancer activity against human MDA-MB-468 cells assessed as cell growth inhibition; format: functional, cell-based
# [30] = system: HCC1143; assay: Anticancer activity against human HCC1143 cells assessed as cell growth inhibition; format: functional, cell-based
# [31] = system: MDA-MB-453; assay: Anticancer activity against human MDA-MB-453 cells assessed as cell growth inhibition; format: functional, cell-based
# [32] = system: MCF7; assay: Anticancer activity against human MCF7 cells assessed as cell growth inhibition; format: functional, cell-based
# [33] = system: HCC38; assay: Anticancer activity against human HCC38 cells assessed as cell growth inhibition; format: functional, cell-based
# T1 sequence (Q96GD4 whole entry): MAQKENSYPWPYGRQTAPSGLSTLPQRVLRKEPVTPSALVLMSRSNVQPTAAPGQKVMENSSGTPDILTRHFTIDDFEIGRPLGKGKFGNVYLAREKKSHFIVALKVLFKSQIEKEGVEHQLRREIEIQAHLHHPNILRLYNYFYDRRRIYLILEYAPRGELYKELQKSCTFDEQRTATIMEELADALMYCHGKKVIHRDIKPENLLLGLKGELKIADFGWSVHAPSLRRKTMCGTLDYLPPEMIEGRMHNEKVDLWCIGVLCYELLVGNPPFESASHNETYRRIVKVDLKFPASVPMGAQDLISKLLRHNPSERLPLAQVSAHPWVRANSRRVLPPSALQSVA
# T2 sequence (P08069 31-736 limits assumed): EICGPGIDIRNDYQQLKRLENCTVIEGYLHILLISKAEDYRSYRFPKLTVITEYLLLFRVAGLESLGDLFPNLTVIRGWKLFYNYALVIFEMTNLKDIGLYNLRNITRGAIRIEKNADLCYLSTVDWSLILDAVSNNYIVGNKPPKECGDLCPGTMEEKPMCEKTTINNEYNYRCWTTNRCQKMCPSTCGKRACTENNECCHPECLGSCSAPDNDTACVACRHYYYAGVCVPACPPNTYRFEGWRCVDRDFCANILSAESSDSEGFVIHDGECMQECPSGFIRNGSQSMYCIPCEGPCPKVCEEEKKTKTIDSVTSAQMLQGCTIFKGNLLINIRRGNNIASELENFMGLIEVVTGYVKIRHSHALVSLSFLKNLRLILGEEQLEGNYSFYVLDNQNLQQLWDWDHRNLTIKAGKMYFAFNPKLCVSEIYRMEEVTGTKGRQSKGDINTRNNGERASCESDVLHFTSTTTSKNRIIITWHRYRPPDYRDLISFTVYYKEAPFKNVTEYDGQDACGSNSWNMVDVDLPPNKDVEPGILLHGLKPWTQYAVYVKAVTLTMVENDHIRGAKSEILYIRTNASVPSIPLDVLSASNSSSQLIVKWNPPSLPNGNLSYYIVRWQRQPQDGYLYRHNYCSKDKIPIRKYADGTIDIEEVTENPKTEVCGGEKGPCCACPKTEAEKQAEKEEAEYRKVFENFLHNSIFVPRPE
# T2 sequence (P08069 741-1367 limits assumed): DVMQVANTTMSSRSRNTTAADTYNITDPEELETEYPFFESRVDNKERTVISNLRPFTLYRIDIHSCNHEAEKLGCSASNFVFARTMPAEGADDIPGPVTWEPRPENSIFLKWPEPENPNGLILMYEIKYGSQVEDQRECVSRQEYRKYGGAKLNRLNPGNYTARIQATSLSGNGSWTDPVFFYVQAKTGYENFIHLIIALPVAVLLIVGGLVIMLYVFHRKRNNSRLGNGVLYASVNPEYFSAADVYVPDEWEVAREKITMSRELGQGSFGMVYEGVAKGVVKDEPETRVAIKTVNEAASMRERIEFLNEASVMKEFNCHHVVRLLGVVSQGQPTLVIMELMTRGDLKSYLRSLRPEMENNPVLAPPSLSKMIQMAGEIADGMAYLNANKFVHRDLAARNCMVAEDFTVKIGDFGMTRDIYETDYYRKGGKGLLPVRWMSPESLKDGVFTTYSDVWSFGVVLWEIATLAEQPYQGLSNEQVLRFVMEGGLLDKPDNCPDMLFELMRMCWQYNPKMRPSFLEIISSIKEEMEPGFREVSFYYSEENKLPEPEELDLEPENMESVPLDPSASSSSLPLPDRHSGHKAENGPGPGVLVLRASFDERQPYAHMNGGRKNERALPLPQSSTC
# Sequence of Aurora kinase A (O14965 whole entry): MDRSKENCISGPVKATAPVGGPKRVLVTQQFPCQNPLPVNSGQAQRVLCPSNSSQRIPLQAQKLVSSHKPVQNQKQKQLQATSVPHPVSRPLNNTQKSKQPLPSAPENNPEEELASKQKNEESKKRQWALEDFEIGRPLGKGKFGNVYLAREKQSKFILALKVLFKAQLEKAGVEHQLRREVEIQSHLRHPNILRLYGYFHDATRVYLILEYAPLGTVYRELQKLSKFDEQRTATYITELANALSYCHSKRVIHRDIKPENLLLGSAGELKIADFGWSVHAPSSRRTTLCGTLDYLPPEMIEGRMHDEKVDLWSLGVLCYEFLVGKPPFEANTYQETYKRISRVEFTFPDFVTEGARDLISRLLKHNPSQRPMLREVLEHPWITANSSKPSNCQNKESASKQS
# Sequence of Thioredoxin (P10599 whole entry): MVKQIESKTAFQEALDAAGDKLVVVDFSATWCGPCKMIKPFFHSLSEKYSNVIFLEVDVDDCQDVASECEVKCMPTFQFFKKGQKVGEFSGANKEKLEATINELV
smiles,measurement,setting,value
O=C(Cc1cccc(OC(F)(F)F)c1)Nc1ccc(CCCCc2nnc(NC(=O)Cc3ccccn3)s2)nn1,pIC50,[1],7.00
same,pIC50,[2],7.30
O=C1OC(=O)C2C3CCC(O3)C12 (configuration not stated),IC50,[3],12.8 µg/mL
same,IC50,[4],21.8 µg/mL
same,IC50,[5],17.7 µg/mL
CCOC(=O)c1cnn(-c2ccc(NC(=O)C(Cl)=C(Cl)Cl)cc2)c1C(F)(F)F,pIC50,[6],6.00
Cc1nc(Nc2ncc(C(=O)Nc3cc(NC(=O)c4cccc(C(F)(F)F)c4)ccc3C)s2)cc(N2CCN(CCO)CC2)n1,pIC50,[7],6.92
same,pIC50,[8],8.21
same,pIC50,[9],6.64
same,pIC50,[10],8.04
Nc1ccc(-c2ccc3ncc4ccc(=O)n(-c5cccc(C(F)(F)F)c5)c4c3c2)cn1,GR50,[11],0.01 µM
same,GR50,[12],0.01 µM
Fc1ccc(-c2ccc(Nc3nc(Cl)nc(Cl)n3)cc2)cc1,pIC50,[13],5.00
CN(c1ccccc1CNc1nc(Nc2ccc3c(c2)CC(=O)N3)ncc1C(F)(F)F)S(C)(=O)=O,pIC50,[14],5.21
Nc1ccccc1NC(=O)c1ccc(CNC(=O)OCc2cccnc2)cc1 [ENTINOSTAT],pIC50,[15],6.00
same,pIC50,[16],6.00
Cc1ccsc1C(=O)Nc1cc(CN2CCN(C(=O)CO)CC2)ccc1/C=C/c1n[nH]c2ccccc12 [KW-2450],pIC50,[17],7.18
same,pIC50,[18],6.57
same,pIC50,[19],> 8.70
same,pIC50,[20],6.67
same,pIC50,[21],6.32
same,pIC50,[22],> 8.70
Cc1sc2c(c1C)C(c1ccc(Cl)cc1)=N[C@@H](CC(=O)NCCCCCCCCCCNC(=O)C[C@@H]1N=C(c3ccc(Cl)cc3)c3c(sc(C)c3C)-n3c(C)nnc31)c1nnc(C)n1-2,pIC50,[23],7.99
same,pIC50,[24],8.39
same,pIC50,[25],7.72
same,pIC50,[26],7.82
same,pIC50,[27],8.17
N#CCNC(=O)c1ccc(-c2ccnc(Nc3ccc(N4CCOCC4)cc3)n2)cc1 [MOMELOTINIB],pIC50,[28],6.00
same,pIC50,"[11]; Homo sapiens, HCC70",5.00
same,pIC50,[8],6.00
same,pIC50,[29],6.00
same,pIC50,[30],5.30
CCN(CC)c1ccc(CNc2ccc(Cl)cc2)cc1,pEC50,[31],5.60
same,pEC50,[32],6.11
same,pEC50,[7],6.36
same,pEC50,[29],5.60
same,pEC50,[33],5.92
